Like-named read-outs stand apart in the source and are kept apart here.
Columns and labels:
[1] = target: T1, Cholinesterase,Acetyl, ACES (Homo sapiens, UniProt P22303); assay: biochemical; set-up: Eurofins SafetyScreen44 panel of binding and enzyme assays, mean per cent inhibition of duplicate; conditions: read-out: Inhibition (%) at 10 µM TH9619
T1 construct: gene ACHE
From the text: (§1) Bars represent the mean change in protein melting temperature (ΔTm) of one experiment performed in triplicate. […] Bars represent mean inhibition in percentage of one experiment performed in duplicate.

[2] = target: T2, Nicotinic Acetylcholine a4ß2, Cytisine (Homo sapiens, UniProt P17787+P43681); assay: biochemical; set-up: Eurofins SafetyScreen44 panel of binding and enzyme assays, mean per cent inhibition of duplicate; conditions: read-out: Inhibition (%) at 10 µM TH9619
T2 construct: gene CHRNB2; cytisine site
From the text: as §1

Adrenergic ß1 = target: T3, Adrenergic ß1 (Homo sapiens, UniProt P08588); assay: biochemical; set-up: Eurofins SafetyScreen44 panel of binding and enzyme assays, mean per cent inhibition of duplicate; conditions: read-out: Inhibition (%) at 10 µM TH9619
T3 construct: gene ADRB1
From the text: as §1

Monoamine Oxidase MAO-A = target: T4, Monoamine Oxidase MAO-A (Homo sapiens, UniProt P21397); assay: biochemical; set-up: Eurofins SafetyScreen44 panel of binding and enzyme assays, mean per cent inhibition of duplicate; conditions: read-out: Inhibition (%) at 10 µM TH9619
T4 construct: gene MAOA
From the text: as §1

Cyclooxygenase COX-2 = target: T5, Cyclooxygenase COX-2 (Homo sapiens, UniProt P35354); assay: biochemical; set-up: Eurofins SafetyScreen44 panel of binding and enzyme assays, mean per cent inhibition of duplicate; conditions: read-out: Inhibition (%) at 10 µM TH9619
T5 construct: gene PTGS2
From the text: as §1

Cannabinoid CB2 = target: T6, Cannabinoid CB2 (Homo sapiens, UniProt P34972); assay: biochemical; set-up: Eurofins SafetyScreen44 panel of binding and enzyme assays, mean per cent inhibition of duplicate; conditions: read-out: Inhibition (%) at 10 µM TH9619
T6 construct: gene CNR2
T6 sequence (P34972 whole entry): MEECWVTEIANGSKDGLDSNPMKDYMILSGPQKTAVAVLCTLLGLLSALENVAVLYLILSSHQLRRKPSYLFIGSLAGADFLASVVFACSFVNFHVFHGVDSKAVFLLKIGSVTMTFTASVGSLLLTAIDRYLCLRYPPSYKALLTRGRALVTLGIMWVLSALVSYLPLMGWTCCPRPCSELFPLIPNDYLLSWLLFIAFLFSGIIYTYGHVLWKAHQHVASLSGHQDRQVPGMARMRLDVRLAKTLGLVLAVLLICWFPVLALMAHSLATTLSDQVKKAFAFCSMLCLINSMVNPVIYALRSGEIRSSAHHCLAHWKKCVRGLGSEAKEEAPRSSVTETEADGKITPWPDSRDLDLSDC
From the text: as §1

[3] = target: T7, Transporter, Norepinephrine (NET) (Homo sapiens, UniProt P23975); assay: biochemical; set-up: Eurofins SafetyScreen44 panel of binding and enzyme assays, mean per cent inhibition of duplicate; conditions: read-out: Inhibition (%) at 10 µM TH9619
T7 construct: gene SLC6A2
From the text: as §1

[4] = target: T8, Serotonin (5-Hydroxytryptamine) 5-HT1B (Homo sapiens, UniProt P28222); assay: biochemical; set-up: Eurofins SafetyScreen44 panel of binding and enzyme assays, mean per cent inhibition of duplicate; conditions: read-out: Inhibition (%) at 10 µM TH9619
T8 construct: gene HTR1B
From the text: as §1

[5] = target: T9, Potassium Channel hERG, [3H]Dofetilide (Homo sapiens, UniProt Q12809); assay: in vitro; set-up: Eurofins SafetyScreen44 panel of binding and enzyme assays, mean per cent inhibition of duplicate
T9 construct: gene KCNH2; dofetilide site
T9 sequence (Q12809 whole entry): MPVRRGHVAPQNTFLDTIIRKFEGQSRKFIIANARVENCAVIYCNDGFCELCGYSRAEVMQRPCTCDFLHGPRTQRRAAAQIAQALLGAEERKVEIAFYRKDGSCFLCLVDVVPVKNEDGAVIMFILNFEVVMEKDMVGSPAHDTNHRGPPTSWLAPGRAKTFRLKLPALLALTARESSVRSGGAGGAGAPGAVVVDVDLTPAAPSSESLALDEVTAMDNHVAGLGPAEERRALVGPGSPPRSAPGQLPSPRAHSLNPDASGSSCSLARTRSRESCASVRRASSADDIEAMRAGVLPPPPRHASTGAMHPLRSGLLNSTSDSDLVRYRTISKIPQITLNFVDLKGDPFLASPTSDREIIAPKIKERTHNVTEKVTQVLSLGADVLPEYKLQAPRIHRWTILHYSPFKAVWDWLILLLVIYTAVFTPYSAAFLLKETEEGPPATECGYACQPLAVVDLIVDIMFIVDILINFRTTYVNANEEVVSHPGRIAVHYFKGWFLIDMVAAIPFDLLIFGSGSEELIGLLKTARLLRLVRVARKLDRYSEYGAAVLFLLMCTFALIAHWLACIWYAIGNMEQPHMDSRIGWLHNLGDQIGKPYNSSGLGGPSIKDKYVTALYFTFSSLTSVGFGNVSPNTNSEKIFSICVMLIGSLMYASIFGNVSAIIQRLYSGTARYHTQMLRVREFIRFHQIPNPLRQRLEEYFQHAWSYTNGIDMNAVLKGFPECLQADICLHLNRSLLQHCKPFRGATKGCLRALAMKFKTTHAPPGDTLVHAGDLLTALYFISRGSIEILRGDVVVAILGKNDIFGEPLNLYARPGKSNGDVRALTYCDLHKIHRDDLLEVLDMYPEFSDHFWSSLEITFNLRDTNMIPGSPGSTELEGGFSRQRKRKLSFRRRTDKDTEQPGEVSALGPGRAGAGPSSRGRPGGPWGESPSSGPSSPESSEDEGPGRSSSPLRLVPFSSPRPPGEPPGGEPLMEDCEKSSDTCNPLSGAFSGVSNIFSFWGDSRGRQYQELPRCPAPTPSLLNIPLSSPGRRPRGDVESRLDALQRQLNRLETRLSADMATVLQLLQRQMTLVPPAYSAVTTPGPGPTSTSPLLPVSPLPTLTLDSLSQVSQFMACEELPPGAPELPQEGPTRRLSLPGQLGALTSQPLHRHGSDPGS
From the text: as §1

[6] = target: T10, Serotonin (5-Hydroxytryptamine) 5-HT2B (Homo sapiens, UniProt P41595); assay: biochemical; set-up: Eurofins SafetyScreen44 panel of binding and enzyme assays, mean per cent inhibition of duplicate; conditions: read-out: Inhibition (%) at 10 µM TH9619
T10 construct: gene HTR2B
From the text: as §1

Cannabinoid CB1 = target: T11, Cannabinoid CB1 (Homo sapiens, UniProt P21554); assay: biochemical; set-up: Eurofins SafetyScreen44 panel of binding and enzyme assays, mean per cent inhibition of duplicate; conditions: read-out: Inhibition (%) at 10 µM TH9619
T11 construct: gene CNR1
From the text: as §1

Glucocorticoid = target: T12, Glucocorticoid (Homo sapiens, UniProt P04150); assay: biochemical; set-up: Eurofins SafetyScreen44 panel of binding and enzyme assays, mean per cent inhibition of duplicate; conditions: read-out: Inhibition (%) at 10 µM TH9619
T12 construct: gene NR3C1
From the text: as §1

Muscarinic M1 = target: T13, Muscarinic M1 (Homo sapiens, UniProt P11229); assay: biochemical; set-up: Eurofins SafetyScreen44 panel of binding and enzyme assays, mean per cent inhibition of duplicate; conditions: read-out: Inhibition (%) at 10 µM TH9619
T13 construct: gene CHRM1
From the text: as §1

[7] = target: T14, Serotonin (5-Hydroxytryptamine) 5-HT3 (Homo sapiens, UniProt P46098); assay: biochemical; set-up: Eurofins SafetyScreen44 panel of binding and enzyme assays, mean per cent inhibition of duplicate; conditions: read-out: Inhibition (%) at 10 µM TH9619
T14 construct: gene HTR3A
From the text: as §1

[8] = target: T15, Serotonin (5-Hydroxytryptamine) 5-HT1A (Homo sapiens, UniProt P08908); assay: biochemical; set-up: Eurofins SafetyScreen44 panel of binding and enzyme assays, mean per cent inhibition of duplicate; conditions: read-out: Inhibition (%) at 10 µM TH9619
T15 construct: gene HTR1A
T15 sequence (P08908 whole entry): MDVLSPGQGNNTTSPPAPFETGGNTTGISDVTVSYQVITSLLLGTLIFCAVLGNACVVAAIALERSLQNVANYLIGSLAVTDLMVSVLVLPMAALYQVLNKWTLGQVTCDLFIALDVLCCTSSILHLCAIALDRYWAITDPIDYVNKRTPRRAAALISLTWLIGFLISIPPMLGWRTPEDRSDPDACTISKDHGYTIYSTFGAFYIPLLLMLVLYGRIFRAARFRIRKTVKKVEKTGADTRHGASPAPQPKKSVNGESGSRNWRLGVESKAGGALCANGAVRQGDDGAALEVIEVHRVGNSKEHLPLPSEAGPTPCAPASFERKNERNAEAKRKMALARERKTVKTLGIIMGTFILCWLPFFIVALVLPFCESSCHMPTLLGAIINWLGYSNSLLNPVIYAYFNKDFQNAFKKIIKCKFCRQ
From the text: as §1

[9] = target: T16, Transporter, Dopamine (DAT) (Homo sapiens, UniProt Q01959); assay: biochemical; set-up: Eurofins SafetyScreen44 panel of binding and enzyme assays, mean per cent inhibition of duplicate; conditions: read-out: Inhibition (%) at 10 µM TH9619
T16 construct: gene SLC6A3
From the text: as §1

Muscarinic M2 = target: T17, Muscarinic M2 (Homo sapiens, UniProt P08172); assay: biochemical; set-up: Eurofins SafetyScreen44 panel of binding and enzyme assays, mean per cent inhibition of duplicate; conditions: read-out: Inhibition (%) at 10 µM TH9619
T17 construct: gene CHRM2
T17 sequence (P08172 whole entry): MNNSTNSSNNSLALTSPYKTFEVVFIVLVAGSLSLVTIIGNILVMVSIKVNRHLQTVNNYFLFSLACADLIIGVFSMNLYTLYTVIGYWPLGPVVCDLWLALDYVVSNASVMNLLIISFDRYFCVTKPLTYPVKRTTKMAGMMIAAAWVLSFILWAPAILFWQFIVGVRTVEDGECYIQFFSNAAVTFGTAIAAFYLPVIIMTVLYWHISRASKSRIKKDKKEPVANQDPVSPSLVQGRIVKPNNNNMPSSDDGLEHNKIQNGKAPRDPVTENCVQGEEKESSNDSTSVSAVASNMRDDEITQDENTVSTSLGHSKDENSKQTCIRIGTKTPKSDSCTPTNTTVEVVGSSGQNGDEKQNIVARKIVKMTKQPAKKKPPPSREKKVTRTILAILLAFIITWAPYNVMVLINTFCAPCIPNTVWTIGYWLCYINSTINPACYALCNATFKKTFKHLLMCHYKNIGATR
From the text: as §1

Histamine H2 = target: T18, Histamine H2 (Homo sapiens, UniProt P25021); assay: biochemical; set-up: Eurofins SafetyScreen44 panel of binding and enzyme assays, mean per cent inhibition of duplicate; conditions: read-out: Inhibition (%) at 10 µM TH9619
T18 construct: gene HRH2
From the text: as §1

Endothelin ETA = target: T19, Endothelin ETA (Homo sapiens, UniProt P25101); assay: biochemical; set-up: Eurofins SafetyScreen44 panel of binding and enzyme assays, mean per cent inhibition of duplicate; conditions: read-out: Inhibition (%) at 10 µM TH9619
T19 construct: gene EDNRA
From the text: as §1

Opiate µ (OP3, MOP) = target: T20, Opiate µ (OP3, MOP) (Homo sapiens, UniProt P35372); assay: biochemical; set-up: Eurofins SafetyScreen44 panel of binding and enzyme assays, mean per cent inhibition of duplicate; conditions: read-out: Inhibition (%) at 10 µM TH9619
T20 construct: gene OPRM1
From the text: as §1

Adrenergic α2A = target: T21, Adrenergic α2A (Homo sapiens, UniProt P08913); assay: biochemical; set-up: Eurofins SafetyScreen44 panel of binding and enzyme assays, mean per cent inhibition of duplicate; conditions: read-out: Inhibition (%) at 10 µM TH9619
T21 construct: gene ADRA2A
T21 sequence (P08913 whole entry): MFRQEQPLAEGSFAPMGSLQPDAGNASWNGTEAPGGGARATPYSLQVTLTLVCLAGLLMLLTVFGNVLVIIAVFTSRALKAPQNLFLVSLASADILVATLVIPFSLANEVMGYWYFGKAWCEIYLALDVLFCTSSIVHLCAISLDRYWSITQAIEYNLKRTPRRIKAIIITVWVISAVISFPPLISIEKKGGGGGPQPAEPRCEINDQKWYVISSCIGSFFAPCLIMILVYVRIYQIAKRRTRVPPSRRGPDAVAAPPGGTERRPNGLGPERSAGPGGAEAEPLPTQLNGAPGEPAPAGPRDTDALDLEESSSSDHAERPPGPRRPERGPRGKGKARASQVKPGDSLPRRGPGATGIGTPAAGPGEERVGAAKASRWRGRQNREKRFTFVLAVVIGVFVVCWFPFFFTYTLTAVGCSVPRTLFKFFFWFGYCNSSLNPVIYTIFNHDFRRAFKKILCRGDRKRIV
From the text: as §1

[10] = target: Protein Tyrosine Kinase, LCK (Homo sapiens, UniProt P06239); assay: biochemical; set-up: Eurofins SafetyScreen44 panel of binding and enzyme assays, mean per cent inhibition of duplicate; conditions: read-out: Inhibition (%) at 10 µM TH9619
From the text: as §1

Dopamine D2S = target: T22, Dopamine D2S (Homo sapiens, UniProt P14416); assay: biochemical; set-up: Eurofins SafetyScreen44 panel of binding and enzyme assays, mean per cent inhibition of duplicate; conditions: read-out: Inhibition (%) at 10 µM TH9619
T22 construct: gene DRD2; isoform D2S (short)
From the text: as §1

[11] = target: T23, Cholecystokinin CCK1 (CCKA) (Homo sapiens, UniProt P32238); assay: biochemical; set-up: Eurofins SafetyScreen44 panel of binding and enzyme assays, mean per cent inhibition of duplicate; conditions: read-out: Inhibition (%) at 10 µM TH9619
T23 construct: gene CCKAR
From the text: as §1

Histamine H1 = target: T24, Histamine H1 (Homo sapiens, UniProt P35367); assay: biochemical; set-up: Eurofins SafetyScreen44 panel of binding and enzyme assays, mean per cent inhibition of duplicate; conditions: read-out: Inhibition (%) at 10 µM TH9619
T24 construct: gene HRH1
From the text: as §1

Adrenergic α1A = target: T25, Adrenergic α1A (Homo sapiens, UniProt P35348); assay: biochemical; set-up: Eurofins SafetyScreen44 panel of binding and enzyme assays, mean per cent inhibition of duplicate; conditions: read-out: Inhibition (%) at 10 µM TH9619
T25 construct: gene ADRA1A
From the text: as §1

Cyclooxygenase COX-1 = target: T26, Cyclooxygenase COX-1 (Homo sapiens, UniProt P23219); assay: biochemical; set-up: Eurofins SafetyScreen44 panel of binding and enzyme assays, mean per cent inhibition of duplicate; conditions: read-out: Inhibition (%) at 10 µM TH9619
T26 construct: gene PTGS1
From the text: as §1

Adenosine A2A = target: T27, Adenosine A2A (Homo sapiens, UniProt P29274); assay: biochemical; set-up: Eurofins SafetyScreen44 panel of binding and enzyme assays, mean per cent inhibition of duplicate; conditions: read-out: Inhibition (%) at 10 µM TH9619
T27 construct: gene ADORA2A
From the text: as §1

[12] = target: T28, Transporter, Serotonin (5-Hydroxytryptamine) (SERT) (Homo sapiens, UniProt P31645); assay: biochemical; set-up: Eurofins SafetyScreen44 panel of binding and enzyme assays, mean per cent inhibition of duplicate; conditions: read-out: Inhibition (%) at 10 µM TH9619
T28 construct: gene SLC6A4
From the text: as §1

Vasopressin V1A = target: T29, Vasopressin V1A (Homo sapiens, UniProt P37288); assay: biochemical; set-up: Eurofins SafetyScreen44 panel of binding and enzyme assays, mean per cent inhibition of duplicate; conditions: read-out: Inhibition (%) at 10 µM TH9619
T29 construct: gene AVPR1A
T29 sequence (P37288 whole entry): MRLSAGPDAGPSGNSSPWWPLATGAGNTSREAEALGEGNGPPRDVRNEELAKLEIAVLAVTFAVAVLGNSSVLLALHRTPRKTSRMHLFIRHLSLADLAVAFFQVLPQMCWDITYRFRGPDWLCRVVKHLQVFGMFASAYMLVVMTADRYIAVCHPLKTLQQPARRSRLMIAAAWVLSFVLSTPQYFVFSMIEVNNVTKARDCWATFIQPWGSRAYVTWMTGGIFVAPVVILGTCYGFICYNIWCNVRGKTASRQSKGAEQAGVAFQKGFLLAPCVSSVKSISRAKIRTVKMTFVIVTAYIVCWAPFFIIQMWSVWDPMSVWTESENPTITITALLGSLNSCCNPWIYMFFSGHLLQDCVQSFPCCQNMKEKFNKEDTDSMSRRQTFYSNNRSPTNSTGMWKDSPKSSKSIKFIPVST
From the text: as §1

Phosphodiesterase PDE4D2 = target: T30, Phosphodiesterase PDE4D2 (Homo sapiens, UniProt Q08499); assay: biochemical; set-up: Eurofins SafetyScreen44 panel of binding and enzyme assays, mean per cent inhibition of duplicate; conditions: read-out: Inhibition (%) at 10 µM TH9619
T30 construct: gene PDE4D; isoform PDE4D2
From the text: as §1

Dopamine D1 = target: T31, Dopamine D1 (Homo sapiens, UniProt P21728); assay: biochemical; set-up: Eurofins SafetyScreen44 panel of binding and enzyme assays, mean per cent inhibition of duplicate; conditions: read-out: Inhibition (%) at 10 µM TH9619
T31 construct: gene DRD1
From the text: as §1

Phosphodiesterase PDE3A = Phosphodiesterase PDE3A (Homo sapiens, UniProt Q14432); assay: biochemical; set-up: Eurofins SafetyScreen44 panel of binding and enzyme assays, mean per cent inhibition of duplicate; conditions: read-out: Inhibition (%) at 10 µM TH9619
From the text: as §1

Muscarinic M3 = target: T32, Muscarinic M3 (Homo sapiens, UniProt P20309); assay: biochemical; set-up: Eurofins SafetyScreen44 panel of binding and enzyme assays, mean per cent inhibition of duplicate; conditions: read-out: Inhibition (%) at 10 µM TH9619
T32 construct: gene CHRM3
T32 sequence (P20309 whole entry): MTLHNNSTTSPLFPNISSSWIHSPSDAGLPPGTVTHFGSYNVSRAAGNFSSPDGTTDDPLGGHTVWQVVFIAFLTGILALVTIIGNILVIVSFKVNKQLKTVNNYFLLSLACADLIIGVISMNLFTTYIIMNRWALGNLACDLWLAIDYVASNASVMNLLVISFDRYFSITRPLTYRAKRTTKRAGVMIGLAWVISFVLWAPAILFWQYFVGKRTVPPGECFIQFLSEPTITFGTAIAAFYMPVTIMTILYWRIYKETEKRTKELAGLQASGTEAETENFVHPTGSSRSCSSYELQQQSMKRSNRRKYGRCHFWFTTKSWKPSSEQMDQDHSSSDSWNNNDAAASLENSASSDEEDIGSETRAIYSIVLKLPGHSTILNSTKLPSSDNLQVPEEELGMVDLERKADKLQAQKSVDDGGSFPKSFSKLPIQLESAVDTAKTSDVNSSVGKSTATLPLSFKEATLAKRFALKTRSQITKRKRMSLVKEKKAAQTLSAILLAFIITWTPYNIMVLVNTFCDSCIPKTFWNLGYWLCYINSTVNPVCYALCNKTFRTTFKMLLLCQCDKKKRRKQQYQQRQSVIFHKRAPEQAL
From the text: as §1

Opiate κ (OP2, KOP) = target: T33, Opiate κ (OP2, KOP) (Homo sapiens, UniProt P41145); assay: biochemical; set-up: Eurofins SafetyScreen44 panel of binding and enzyme assays, mean per cent inhibition of duplicate; conditions: read-out: Inhibition (%) at 10 µM TH9619
T33 construct: gene OPRK1
From the text: as §1

Adrenergic ß2 = target: T34, Adrenergic ß2 (Homo sapiens, UniProt P07550); assay: biochemical; set-up: Eurofins SafetyScreen44 panel of binding and enzyme assays, mean per cent inhibition of duplicate; conditions: read-out: Inhibition (%) at 10 µM TH9619
T34 construct: gene ADRB2
T34 sequence (P07550 whole entry): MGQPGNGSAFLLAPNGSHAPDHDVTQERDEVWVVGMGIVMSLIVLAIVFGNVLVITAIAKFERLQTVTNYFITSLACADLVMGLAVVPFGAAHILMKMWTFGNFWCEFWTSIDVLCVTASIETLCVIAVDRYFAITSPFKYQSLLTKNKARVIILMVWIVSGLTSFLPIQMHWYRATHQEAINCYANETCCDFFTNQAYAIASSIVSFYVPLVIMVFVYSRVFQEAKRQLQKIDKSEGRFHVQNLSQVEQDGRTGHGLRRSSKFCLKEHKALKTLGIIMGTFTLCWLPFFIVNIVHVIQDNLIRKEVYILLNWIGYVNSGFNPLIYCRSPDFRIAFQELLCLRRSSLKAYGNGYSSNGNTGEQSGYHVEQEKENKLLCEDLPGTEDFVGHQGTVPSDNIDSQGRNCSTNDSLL
From the text: as §1

Androgen (Testosterone) = target: T35, Androgen (Testosterone) (Homo sapiens, UniProt P10275); assay: biochemical; set-up: Eurofins SafetyScreen44 panel of binding and enzyme assays, mean per cent inhibition of duplicate; conditions: read-out: Inhibition (%) at 10 µM TH9619
T35 construct: gene AR
From the text: as §1

MTHFD2L = MTHFD2L (Homo sapiens, UniProt Q9H903); assay: biochemical activity assay
Chain of MTHFD2L (Q9H903 whole entry): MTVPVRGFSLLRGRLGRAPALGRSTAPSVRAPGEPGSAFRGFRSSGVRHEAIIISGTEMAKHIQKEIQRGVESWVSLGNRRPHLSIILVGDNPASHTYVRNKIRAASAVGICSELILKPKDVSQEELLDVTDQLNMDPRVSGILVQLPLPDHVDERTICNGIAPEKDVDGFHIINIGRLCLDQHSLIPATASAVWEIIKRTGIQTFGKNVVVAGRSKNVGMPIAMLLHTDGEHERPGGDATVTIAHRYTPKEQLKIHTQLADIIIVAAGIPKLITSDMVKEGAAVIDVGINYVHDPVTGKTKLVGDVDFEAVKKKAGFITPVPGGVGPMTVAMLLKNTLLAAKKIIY

MTHFD2 = MTHFD2 (Homo sapiens, UniProt P13995); assay: cocrystal structure with NAD+; enzymatic IC50; CETSA; format: biochemical
MTHFD1-(DC) = target: T36, MTHFD1-(DC) (Homo sapiens, UniProt P11586); assay: biochemical activity assay
T36 construct: dehydrogenase/cyclohydrolase (DC) domain
T36 sequence (P11586 2-306 limits assumed): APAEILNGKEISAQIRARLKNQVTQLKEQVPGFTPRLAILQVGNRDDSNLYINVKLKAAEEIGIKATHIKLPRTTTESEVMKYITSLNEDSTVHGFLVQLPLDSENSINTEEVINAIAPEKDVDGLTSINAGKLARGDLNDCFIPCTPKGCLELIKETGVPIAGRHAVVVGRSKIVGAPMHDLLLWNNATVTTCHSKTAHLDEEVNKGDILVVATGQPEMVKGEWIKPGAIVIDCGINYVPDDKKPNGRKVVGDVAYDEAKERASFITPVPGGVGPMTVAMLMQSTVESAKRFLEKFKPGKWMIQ

Nc1nc(N)c(CC(=O)Nc2cnc(C(=O)N[C@@H](CCC(=O)O)C(=O)O)c(F)c2)c(=O)[nH]1 [TH9619]
inhibition at 10 µM [1]: 21% | inhibition at 10 µM [2]: 2% | inhibition at 10 µM (Adrenergic ß1): 0% | inhibition at 10 µM (Monoamine Oxidase MAO-A): 6% | inhibition at 10 µM (Cyclooxygenase COX-2): 16% | inhibition at 10 µM (Cannabinoid CB2): -3% | inhibition at 10 µM [3]: -12% | inhibition at 10 µM [4]: -8% | inhibition at 10 µM [5]: 5% | inhibition at 10 µM [6]: 1% | inhibition at 10 µM (Cannabinoid CB1): 0% | inhibition at 10 µM (Glucocorticoid): 3% | inhibition at 10 µM (Muscarinic M1): -7% | inhibition at 10 µM [7]: -4% | inhibition at 10 µM [8]: 0% | inhibition at 10 µM [9]: -7% | inhibition at 10 µM (Muscarinic M2): -29% | inhibition at 10 µM (Histamine H2): -6% | inhibition at 10 µM (Endothelin ETA): -7% | inhibition at 10 µM (Opiate µ (OP3, MOP)): -10% | inhibition at 10 µM (Adrenergic α2A): 9% | inhibition at 10 µM [10]: 1% | inhibition at 10 µM (Dopamine D2S): 1% | inhibition at 10 µM [11]: 7% | inhibition at 10 µM (Histamine H1): 7% | inhibition at 10 µM (Adrenergic α1A): 9% | inhibition at 10 µM (Cyclooxygenase COX-1): 9% | inhibition at 10 µM (Adenosine A2A): 11% | inhibition at 10 µM [12]: 5% | inhibition at 10 µM (Vasopressin V1A): -15% | inhibition at 10 µM (Phosphodiesterase PDE4D2): -1% | inhibition at 10 µM (Dopamine D1): 5% | inhibition at 10 µM (Phosphodiesterase PDE3A): -3% | inhibition at 10 µM (Muscarinic M3): -2% | inhibition at 10 µM (Opiate κ (OP2, KOP)): 5% | inhibition at 10 µM (Adrenergic ß2): 1% | inhibition at 10 µM (Androgen (Testosterone)): 3%

TH9028
IC50 (MTHFD2L; read-out: MTHFD2L IC50): 27 nM | IC50 (MTHFD2): 11 nM | IC50 (MTHFD1-(DC)): 0.5 nM

Nc1nc(N)c(NC(=O)Nc2ccc(C(=O)N[C@@H](CCC(=O)O)C(=O)O)cc2)c(=O)[nH]1 [TH7299]
IC50 (MTHFD2L): 126 nM

Nc1nc2c(c(=O)[nH]1)N1C(=O)N(c3ccc(C(=O)N[C@@H](CCC(=O)O)C(=O)O)cc3)CC1CN2 (stereo partly drawn) [LY345899]
IC50 (MTHFD1-(DC)): 535 nM
